Data set [1] in a line: Mouse pharmacokinetics, intravenous. It counts as in vivo. Conditions: plasma, male CD1 mice, single intravenous 5.925 mg/kg. The protocol:
Mouse pharmacokinetics were acquired using bicyclic peptide 17-69-04-N004, which was dosed to one group of 12 male CD1 mice as a single intravenous, 5.925 mg/kg doses as a 5 mL/kg bolus of a 1.19 mg/mL solution. […] Blood samples were taken from two animals per time-point, via cardiac puncture under terminal anaesthesia, at 0.08, 0.5, 1, 2 and 4 hours post-dose, and transferred to EDTA tubes for plasma generation. Plasma samples were immediately frozen at −20 C. For analysis, samples were thawed rapidly and 50 μL aliquots were treated with 3 volumes of extraction solvent (2:9:9 mixture of 10 mM ammonium bicarbonate, pH 8, acetonitrile and methanol, containing an analytical internal standard). Precipitated proteins were removed by centrifugation and the supernatant was analysed by LC-MS/MS. Quantification of the samples was by reference to a calibration line prepared in control mouse plasma. Pharmacokinetic parameters were determined by non-compartmental analysis using the software package PK Solutions 2.0 from Summit Research Services.

In data set [2] the target is T1, MT1-MMP hemopexin domain (Homo sapiens, UniProt P50281).
T1 construct: residues Cys319-Gly511 from the human gene; His6 (N); made in house; host or cells: HEK293 (transient), pEXPR-IBA42 vector
Nature of the data set: Direct binding fluorescence polarisation (FP) assay. The procedure: Direct Binding Fluorescence Polarisation or Anisotropy Assays are performed by titrating a constant concentration of fluorescent tracer (here, the fluoresceinated bicyclic peptide to be studied) with its binding partner (here, the MT1-MMP hemopexin domain). As the concentration of binding partner increases during the titration, the polarisation signal changes in proportion to the fraction of bound and unbound material. This allows determination of […] (Kd) quantitatively. Assay data can be fit using standard ligand binding equations.
The titrant (binding partner) concentration is varied from 0.1 nM up to typically 5 μM. The range is chosen such that the maximum change in fluorescent polarisation can be observed. Buffers employed are phosphate buffered saline in the presence of 0.01% Tween. Experiments were run in black 384 well low-bind/low volume plates (Corning 3820), and the fluorescent polarisation signal was measured using a BMG Pherastar FS plate reader.
Fluorescent tracers referred to in the text are bicyclic peptides that have been fluoresceinated using 5,6-carboxyfluorescein. Fluoresceination may be performed on the N-terminal amino group of the peptide, which is separated from the bicycle core sequence by a sarcosine spacer (usually Sar5). This can be done during Fmoc solid phase synthesis or post-synthetically (after cyclisation with TBMB and purification) if the N-terminal amino group is unique to the peptide. Fluoresceination can also be performed on the C-terminus, usually on a Lysine introduced as the first C-terminal residue, which is then separated from the bicycle core sequence by a sarcosine spacer (usually Sar6). Thus, N-terminal tracers can have a molecular format described as Fluo-Gly-Sar5-A(BicycleCoreSequence), and (BicycleCoreSequence)-A-Sar6-K(Fluo) for a C-terminally fluoresceinated construct. Fluorescent tracers used in the Examples are A-(17-69)-A-Sar6-K(Fluo), A-(17-69-07)-A-Sar6-K(Fluo), and A-(17-69-12)-A-Sar6-K(Fluo). Due to the acidic nature of the 17-69 fluorescent peptides, they were typically prepared as concentrated DMSO stocks, from which dilution were prepared in 100 mM Tris pH 8 buffer.
On the technique in general: In fluorescence polarisation assays a small probe gives low polarisation when free and higher when bound to something large.

The target of data set [3] is T1, MT1-MMP hemopexin domain. Description: Competition assay using fluorescence polarisation. Format: binding. Conditions: for Kd: read-out: Kd. A digest of the protocol:
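Pre-formed PEX–fluorescent tracer complex titrated with non-fluoresceinated bicyclic peptide, which displaces tracer and lowers fluorescence polarisation. Competitor Kd obtained by fitting to the cubic-equation solution for tracer/titrant/protein equilibria, using tracer Kd from separate direct-binding FP.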

Setting [4] is: Table 2, FP method Direct Binding, read-out: Kd.

The values that follow come from US10532106B2 (priority 2014, dated 2020).

As usually defined, the AUC(0-inf) is total exposure, with the tail of the curve extrapolated. Low values mean less exposure, high ones more exposure. In general, AUC(0-t) refers to exposure summed from dosing to a finite time, without extrapolation to infinity. A low value points to less exposure. What is called Cmax is the highest concentration seen after dosing. Usually Tmax stands for the time from dosing to the highest level. For orientation: clearance means the rate of elimination divided by the concentration. The half-life is the time in which the quantity being followed falls by half. What is called Kd is the constant that tells how readily two partners part at equilibrium.

Molecules are shown by their SMILES. Numbered stars: 1 amine (or outer) side, 2 acyl side, 3 side chain; on linkers, the order of the positions; unused ones are H or OH. Bridge positions count the residues as written; N and C are the ends. Square brackets hold non-standard residues; d marks the D form. Peptide text beside a SMILES is read from it. * marks the point of attachment. 5FAM = O=C1OC2(c3ccc(O)cc3Oc3cc(O)ccc32)c2ccc(C(=O)*)cc21; Phe(4-Br) = N[C@@H](Cc1ccc(Br)cc1)C(=O)O; 1Nal = N[C@@H](Cc1cccc2ccccc12)C(=O)O; TBMB = c1c(C[*:1])cc(C[*:3])cc1C[*:2]; Tle = CC(C)(C)[C@H](N)C(=O)O; βAla = NCCC(=O)O; Sar = CNCC(=O)O

For `CC[C@H](C)[C@@H]1NC(=O)[C@H](CC(=O)O)NC(=O)[C@H](Cc2ccc(O)cc2)NC(=O)[C@H](Cc2ccccc2)NC(=O)[C@H](CC(=O)O)NC(=O)[C@H](CCC(=O)O)NC(=O)[C@@H]2CSCc3cc(cc(c3)CSC[C@H](NC(C)=O)C(=O)N[C@@H](Cc3ccc(O)cc3)C(=O)N[C@@H](CC(N)=O)C(=O)N[C@@H](CCC(=O)O)C(=O)N[C@@H](Cc3ccccc3)C(=O)NCC(=O)N2)CSC[C@@H](C(N)=O)NC1=O` [17-69-07-N004, Ac-(17-69-07) (wildtype)], in data set [1], the AUC(0-inf) was 4770 ng·h/mL, the area under the curve AUC(0-t) is 4770 ng·h/mL, the Cmax came to 15800 ng/mL and the Tmax was 5 min. Further, the clearance in data set [1] (read-out: Clearance based on AUC 0-∞) came out at 20.7 mL/min/kg. Also, the half-life in data set [1] (read-out: Elimination Half-life) is 14 min. Besides, the Vd in data set [1] (read-out: Volume of Distribution based on AUC 0-∞) was 0.4 L/kg.
On to `CC[C@H](C)[C@@H]1NC(=O)[C@H](CC(=O)O)NC(=O)[C@H](Cc2ccc(O)cc2)NC(=O)[C@H](Cc2ccccc2)NC(=O)[C@H](CC(=O)O)NC(=O)[C@H](CCC(=O)O)NC(=O)[C@@H]2CSCc3cc(cc(c3)CSC[C@@H](C(=O)N[C@@H](C)C(=O)N(C)CC(=O)N(C)CC(=O)N(C)CC(=O)N(C)CC(=O)N(C)CC(=O)N(C)CC(=O)N[C@@H](CCCCNC(=O)c3ccc4c(c3)C(=O)OC43c4ccc(O)cc4Oc4cc(O)ccc43)C(N)=O)NC1=O)CSC[C@H](NC(=O)[C@H](C)N)C(=O)N[C@@H](CCCCN)C(=O)N[C@@H](CC(N)=O)C(=O)N[C@@H](CCCNC(=N)N)C(=O)NCC(=O)N[C@@H](Cc1ccccc1)C(=O)NCC(=O)N2` [Peptide 17-69-N004, A-(17-69)-A-Sar6-K(Fl)] (H-ACKNRGFGCEDFYDICA[Sar][Sar][Sar][Sar][Sar][Sar]K(5FAM)-NH2; linker 2-9-16 via TBMB), for which, in data set [2] (setting [4]), the Kd worked out at 692 nM.
Regarding `C[C@H](NC(=O)CN(C)C(=O)CN(C)C(=O)CN(C)C(=O)CN(C)C(=O)CN(C)C(=O)CN(C)C(=O)CN(C)C(=O)CN(C)C(=O)CN(C)C(=O)CN(C)C(=O)CCNC(=O)c1ccc2c(c1)C(=O)OC21c2ccc(O)cc2Oc2cc(O)ccc21)C(=O)N[C@H]1CSCc2cc3cc(c2)CSC[C@H](NC(=O)[C@@H](C)NC(=O)[C@H](Cc2cccc4ccccc24)NC(=O)[C@H](CCC(=O)O)NC(=O)[C@H](CC(N)=O)NC(=O)[C@@H](C)NC1=O)C(=O)N[C@@H](CCC(=O)O)C(=O)N[C@@H](CC(=O)O)C(=O)N[C@@H](Cc1ccccc1)C(=O)N[C@@H](Cc1ccc(O)cc1)C(=O)N[C@@H](CC(=O)O)C(=O)N[C@@H](C(C)(C)C)C(=O)N[C@H](C(N)=O)CSC3` [17-69-07-N258, Fluorescein-(bAla)-Sar10-A-(17-69-07) D-Ala1 1Nal4 D-Ala5 tBuGly11] ({5FAM-βAla}-[Sar][Sar][Sar][Sar][Sar][Sar][Sar][Sar][Sar][Sar]AC[dA]NE[1Nal][dA]CEDFYD[Tle]C-NH2; linker 12-18-25 via TBMB), the dissociation constant Kd in data set [2] (Table 14, fluoresceinated derivative, read-out: V1T1-MMP (=MMP-14) (Kd, in nM)) is 2.2 nM.
As for `CC[C@H](C)[C@@H]1NC(=O)[C@H](CC(=O)O)NC(=O)[C@H](Cc2ccc(O)cc2)NC(=O)[C@H](Cc2ccccc2)NC(=O)[C@H](CC(=O)O)NC(=O)[C@H](CCC(=O)O)NC(=O)[C@@H]2CSCc3cc(cc(c3)CSC[C@@H](C(=O)N[C@@H](C)C(=O)N(C)CC(=O)N(C)CC(=O)N(C)CC(=O)N(C)CC(=O)N(C)CC(=O)N(C)CC(=O)N[C@@H](CCCCNC(=O)c3ccc4c(c3)C(=O)OC43c4ccc(O)cc4Oc4cc(O)ccc43)C(N)=O)NC1=O)CSC[C@H](NC(=O)[C@H](C)N)C(=O)N[C@@H](Cc1ccc(O)cc1)C(=O)N[C@@H](CC(N)=O)C(=O)N[C@@H](CCC(=O)O)C(=O)N[C@@H](Cc1ccccc1)C(=O)NCC(=O)N2` [17-69-07-N040, A-(17-69-07)-A-Sar6-K(Fl)] (H-ACYNEFGCEDFYDICA[Sar][Sar][Sar][Sar][Sar][Sar]K(5FAM)-NH2; linker 2-8-15 via TBMB), the Kd in data set [2] (setting [4]) turned out to be 0.52 nM.
On to `CC[C@H](C)[C@@H]1NC(=O)[C@H](CC(=O)O)NC(=O)[C@H](Cc2ccc(O)cc2)NC(=O)[C@H](Cc2ccccc2)NC(=O)[C@H](CC(=O)O)NC(=O)[C@H](CCC(=O)O)NC(=O)[C@@H]2CSCc3cc(cc(c3)CSC[C@H](NC(=O)[C@H](C)NC(=O)CN3CCN(CC(=O)O)CCN(CC(=O)O)CCN(CC(=O)O)CC3)C(=O)N[C@@H](Cc3ccc(O)cc3)C(=O)N[C@@H](CC(N)=O)C(=O)N[C@@H](CCC(=O)O)C(=O)N[C@@H](Cc3ccccc3)C(=O)NCC(=O)N2)CSC[C@@H](C(N)=O)NC1=O` [17-69-07-N144, DOTA-A-(17-69-07)], for which the “potency / activity toward MT1-MMP, in words” value in data set [3] was “retains full potency to MT1-MMP”. In data set [3] (Table 15, DOTA-linked peptides), the Kd stood at 0.5 nM.
Take `C[C@H](NC(=O)CN(C)C(=O)CN(C)C(=O)CN(C)C(=O)CN(C)C(=O)CN(C)C(=O)CN(C)C(=O)CN(C)C(=O)CN(C)C(=O)CN(C)C(=O)CN(C)C(=O)CN)C(=O)N[C@H]1CSCc2cc3cc(c2)CSC[C@H](NC(=O)[C@@H](C)NC(=O)[C@H](Cc2cccc4ccccc24)NC(=O)[C@H](CCC(=O)O)NC(=O)[C@H](CC(N)=O)NC(=O)[C@@H](C)NC1=O)C(=O)N[C@@H](CCC(=O)O)C(=O)N[C@@H](CC(=O)O)C(=O)N[C@@H](Cc1ccccc1)C(=O)N[C@@H](Cc1ccc(Br)cc1)C(=O)N[C@@H](CC(=O)O)C(=O)N[C@@H](C(C)(C)C)C(=O)N[C@H](C(N)=O)CSC3` [17-69-07-N244, G-Sar10-A-(17-69-07) D-Ala1 1Nal4 D-Ala5 4BrPhe9 tBuGly11] (H-G[Sar][Sar][Sar][Sar][Sar][Sar][Sar][Sar][Sar][Sar]AC[dA]NE[1Nal][dA]CEDF[Phe(4-Br)]D[Tle]C-NH2; linker 13-19-26 via TBMB): the “potency / activity toward MT1-MMP, in words” value in data set [3] is “potency which is superior to wildtype”. Besides, in data set [3] (Table 12, molecules selected for plasma stability assessment), the Kd turned out to be 0.45 ± 0.19 nM.
As for `CC(=O)NCC(=O)N(C)CC(=O)N(C)CC(=O)N(C)CC(=O)N(C)CC(=O)N(C)CC(=O)N(C)CC(=O)N(C)CC(=O)N(C)CC(=O)N(C)CC(=O)N(C)CC(=O)N[C@@H](C)C(=O)N[C@H]1CSCc2cc3cc(c2)CSC[C@H](NC(=O)[C@@H](C)NC(=O)[C@H](Cc2cccc4ccccc24)NC(=O)[C@H](CCC(=O)O)NC(=O)[C@H](CC(N)=O)NC(=O)[C@@H](C)NC1=O)C(=O)N[C@@H](CCC(=O)O)C(=O)N[C@@H](CC(=O)O)C(=O)N[C@@H](Cc1ccccc1)C(=O)N[C@@H](Cc1ccc(Br)cc1)C(=O)N[C@@H](CC(=O)O)C(=O)N[C@@H](C(C)(C)C)C(=O)N[C@H](C(N)=O)CSC3` [17-69-07-N255, Ac-G-Sar10-A-(17-69-07) D-Ala1 1Nal4 D-Ala5 4BrPhe9 tBuGly11] (Ac-G[Sar][Sar][Sar][Sar][Sar][Sar][Sar][Sar][Sar][Sar]AC[dA]NE[1Nal][dA]CEDF[Phe(4-Br)]D[Tle]C-NH2; linker 13-19-26 via TBMB), the “potency / activity toward MT1-MMP, in words” value in data set [3] was “potency which is superior to wildtype”. Besides, in data set [3] (Table 11, G-Sar10-A addition), the dissociation constant Kd came to 0.3 nM.
As for `CC[C@H](C)[C@@H]1NC(=O)[C@H](CC(=O)O)NC(=O)[C@H](Cc2ccc(O)cc2)NC(=O)[C@H](Cc2ccccc2)NC(=O)[C@H](CC(=O)O)NC(=O)[C@H](CCC(=O)O)NC(=O)[C@@H]2CSCc3cc(cc(c3)CSC[C@@H](C(=O)N[C@@H](C)C(=O)N(C)CC(=O)N(C)CC(=O)N(C)CC(=O)N(C)CC(=O)N(C)CC(=O)N(C)CC(=O)N[C@@H](CCCCNC(=O)c3ccc4c(c3)C(=O)OC43c4ccc(O)cc4Oc4cc(O)ccc43)C(N)=O)NC1=O)CSC[C@H](NC(=O)[C@H](C)N)C(=O)N[C@@H](CCSC)C(=O)N[C@@H](CC(N)=O)C(=O)N[C@@H](CCC(N)=O)C(=O)N[C@@H](Cc1ccccc1)C(=O)NCC(=O)N2` [17-69-12-N005, A-(17-69-12)-A-Sar6-K(Fl)] (H-ACMNQFGCEDFYDICA[Sar][Sar][Sar][Sar][Sar][Sar]K(5FAM)-NH2; linker 2-8-15 via TBMB), the Kd in data set [2] (setting [4]) came to 3.1 nM.
